Measurements published in US20160237450A1, “METHOD FOR ENHANCING DROUGHT TOLERANCE IN PLANTS” (Plant Response Biotech S.L., priority 2015, published 2016).

Assays:
celery plants = assay: Yield production without drought stress, celery; format: in vivo; settings: 1 g/l spray every 4 weeks for 3 months, no drought stress
Protocol: In order to determine the plant yield productivity under normal conditions, ‘Sabrina’, ‘Candonga’ and ‘Fortuna’ strawberry varieties, leek, lettuce, “Iceberg” variety, broccoli “Parthenon” variety, celery or kohlrabi plants, were grown under standard production conditions and 120 plants of each variety per treatment (where the treatment was a control comprising standard watering or 1 g/L of TMAO di-hydrate spray every four weeks) were analyzed. Plants were located in four (4) different positions for each group of 30 plants from the same treatment. Fruits, leaves or roots were harvested from individual plants and total weight was determined for each plant.
Root or leaves yield was determined in the plants treated with 1 g/l of TMAO di-hydrate or water as described above in order to evaluate the trade-off costs of the treatment with no drought stress.

barley plants ('Bomi') = assay: Barley dry weight under drought; format: in vivo
Protocol: For each drought or limited water experiment 480 seeds (of either pepper, barley, tomato, cucumber or corn) were sown, producing 384 plants in 512 cm^3 pots (4 plants per pot). Plants were grown under chamber conditions at 21° C. for 3 weeks. Then, the plants were moved to a greenhouse, where average temperature was 25° C. to 28° C. Spray and irrigation treatments as described herein were done when the plants had two extended leaves and the next pair of leaves were coming up.
Treatments: Twelve pots (containing 48 plants) were irrigated with 40 ml of either: water, 0.1 g/L TMAO di-hydrate solution, 1.0 g/L TMAO di-hydrate solution, or 5.5 g/L TMAO di-hydrate solution. Another set of 12 pots containing 48 plants were sprayed with 40 ml of either water (3.3 ml in average per pot), a solution containing 0.1 g/L TMAO di-hydrate solution, 1.0 g/L TMAO di-hydrate, or 5 g/L, or 10 g/L TMAO di-hydrate. Further sets of 12 pots containing 48 plants were both sprayed with each initial solution TMAO di-hydrate solution and further irrigated with the same TMAO di-hydrate solutions used in the control water sprayed plants. All pots were also watered with 40 ml of water. The sprayed plants were watered with the same volume of water as the “irrigated plants). The pots were located on plastic glass to maintain constant moisture and to avoid liquid spillage during watering. Trays containing the pots were located on greenhouse tables. The distribution of the trays on the table and the position on the pots in the tray was changed every week to avoid position effects.
After the treatments described above, the plants were not watered until the pots completely lost their moisture, taking about 4 to 8 days depending on the season, at which point the plants were extremely wilted for the extreme drought experiments. […] For the “extreme drought” experiments plants were allowed to wilt severely before watering and then the plant survival rate was recorded and analyzed. […]

With C[N+](C)(C)[O-].O.O [TMAO di-hydrate, trimethylamine N-oxide di-hydrate] the “Yield production, % Control” value (celery plants) was 100%, the “AVERAGE DRY weight ± S.E.” value (barley plants ('Bomi'); initial treatment 1 g/L sprayed, irrigations water, three cycles of wilt-watering) was 1205.4 ± 60.37 mg and the “AVERAGE DRY weight ± S.E.” value (barley plants ('Bomi'); initial treatment 1 g/L watered, irrigations water, three cycles of wilt-watering) was 1371.4 ± 66.13 mg. The “AVERAGE DRY weight ± S.E.” value (barley plants ('Bomi'); no initial treatment, irrigations 1 g/L) was 1216.1 ± 33.44 mg.
